Assay results from patent publication US12708630B2, “Combined therapy of 4′-thio-5-aza-2′-deoxycytidine and Venetoclax” (PINOTBIO, INC., priority 2021, dated 2026).
“Also recorded” adds a separate entry of the source. Like-named read-outs stand apart in the source and are kept apart here.

What was measured:
[1] = test system: MV4-11 AML cells; experiment: MV4-11 AML xenograft implanted subcutaneously, combination with venetoclax; format: in vivo, mice; set-up: anti-cancer effect (tumor volume): dose or concentration left out as unconfirmed
Procedure: After establishing a xenograft systemic AML model in which MV4-11 AML cells were implanted subcutaneously in mice, Aza-T-dCyd alone at 2.0 mpk for 1 cycle (5 days on, 2 days off, 5 days on, 9 days off) was administered (PO) or Aza-T-dCyd 0.5, 1.0 or 2.0 mpk plus venetoclax 50 mpk or 100 mpk administered orally (PO) for 1 cycle (venetoclax on for 5 days, off for 2 days, repeated for 3 weeks). Anti-cancer efficacy was determined in disease models in which azacitidine 5.0 mpk was administered intraperitoneally (IP) alone or in combination with optimal dose of azacitidine (2.5 mpk) and venetoclax 50 mpk or 100 mpk as a control.

[2] = test system: DNA methylation; experiment: DNA demethylation; format: cell-based
Text: Through DNA demethylation caused by Aza-T-dCyd treatment, various tumor suppressor genes and genes required for differentiation induction of AML cells were reactivated, and the reactivated expression patterns of these genes were confirmed by RNA-seq data analysis (FIG. 24).

[3] = GLP dog toxicology study; format: in vivo; settings: dog, 0.15, 0.5 and 1.0 mg/kg per day
Procedure: GLP-Tox studies have been conducted in rats and dogs, with 2 cycles of QD×5d at PO.
In a GLP dog toxicology study, Aza-T-dCyd was administered at 0.15, 0.5, and 1.0 mg/kg (3, 10, and 20 mg/m^2) per day. […] The maximum tolerated dose (MTD) was between 0.5 and 1 mg/kg (10~20 mg/m^2) per day, the highest non-toxic dose (HNSTD) was 0.5 mg/kg (10 mg/m^2) per day, and the no observed adverse effect level (NOAEL) was <0.15 mg/kg (3) mg/m^2) per day.

[4] = target: DNMT3B (Homo sapiens, UniProt Q9UBC3); experiment: Western blotting of Molm13 xenograft cancer tissues, DNMT3B; format: in vivo; set-up: cancer tissues were harvested and analyzed by Western blotting; from tissue; host or cells: Molm13 leukemia xenograft cancer tissue
[5] = test system: BL0382PD PDX (bladder); format: in vivo, Mouse; settings: NSG mouse, 1 mg/kg, (4) cycles
Text: The efficacy of Aza-T-dCyd was confirmed by tumor growth curves after administration of Aza-T-dCyd in various solid cancer xenograft models. […]

[6] = test system: H2AX, Chk1, p53; experiment: DNA damage response markers; format: cell-based
[7] = test system: DNMT1 knock-out MV4-11 cells; experiment: Target engagement: cytotoxicity in DNMT1 knock-out MV4-11 cell line; format: cell-based; settings: DNMT1 knock-out (siRNA) MV4-11, concentration-dependent treatment
Text: This confirms that Aza-T-dCyd has potent pharmacological effects through DNMT1 (FIG. 18).

[8] = Pharmacokinetic evaluation in Rat; format: in vivo; settings: for AUC(0-inf) / AUC(0-t) / Cmax / half-life / Tmax: in vivo, Rat; for half-life: read-out: T½ (converted)
Procedure: Aza-T-dCyd was administered orally and intravenously at various concentrations to Mice, Rats and Dogs to determine the PK profile.

[9] = test system: AML cell lines; experiment: Cell viability inhibition in AML cell lines; format: cell-based; settings: various AML cell lines, FIG. 19
Procedure: (§1) The growth-inhibitory activity of Aza-T-dCyd, a DNMT1 inhibitor, was measured in leukemia cell lines to determine its inhibitory effect on cell proliferation.

[10] = test system: leukemia cell lines; experiment: Growth-inhibitory activity on leukemia cell lines (GI50); format: cell-based; settings: leukemia cell lines, 72 hours, range over cell lines; read-out: GI50 values (half maximal growth inhibitory concentrations)
Procedure: as §1
The growth-inhibitory activity of DNMT1 inhibitors, Aza-T-dCyd and Decitabine, was measured on leukemia cell lines to determine their effect on cell proliferation.

[11] = test system: DNMT3A; experiment: DNMT3A expression in HL-60 xenograft tumor samples; format: in vivo, mice; settings: 2 mg/kg NTX-301 intraperitoneally, day 11
Procedure: As the efficacy of DNMT1 inhibitors correlates with their selective profile for targeting DNMT1 and the de novo methyltransferases DNMT3A and DNMT3B, we confirmed the expression of DNMT1, DNMT3A, and DNMT3B in the Aza-T-dCyd and Decitabine treated groups in this xenograft model (FIG. 27).
In the HL-60 xenograft mice model, 2 mg/kg of NTX-301 (Aza-T-dCyd) or 0.75 mg/kg of Decitabine were administered intraperitoneally, and then tumor samples were collected on day 11 to determine the expression of DNMT1, DNMT3A, and DNMT3B. […] On the other hand, the expression levels of DNMT3A and DNMT3B were different in the Aza-T-dCyd and Decitabine treatment groups.

[12] = test system: HCT-116 (colorectal); experiment: HCT-116 (colorectal) xenograft model; format: in vivo, Mouse; settings: nude mouse, 1 mg/kg, (4) cycles
Procedure: The efficacy of Aza-T-dCyd was confirmed by tumor growth curves after administration of Aza-T-dCyd in various solid cancer xenograft models. Aza-T-dCyd at a dose of 1~2 mg/kg was administered repeatedly for 2~6 cycles in QD×5, showing excellent anti-cancer effects (evidenced by test/control (T/C) value≤40%).

Nc1ncn([C@H]2CC(O)[C@@H](CO)S2)c(=O)n1 (stereo partly drawn) [Aza-T-dCyd, 4′-thio-5-aza-2′-deoxycytidine]
anti-cancer effect (tumor volume) ([1]; Aza-T-dCyd 0.5 mpk with venetoclax, FIGS. 30 and 31): complete tumor regression | anti-cancer efficacy of monotherapy versus Azacytidine/Venetoclax ([1]; Aza-T-dCyd 2.0 mpk alone, FIGS. 28 to 33): as effective as the Azacytidine/Venetoclax group; also recorded: anti-cancer efficacy equivalent to or superior to that of Azacytidine/Venetoclax combination | anti-cancer effect (tumor volume), single agent ([1]; administered alone (Aza-T-dCyd 2 mpk), FIGS. 30 and 31, listed as NTX-301): sufficiently working; also recorded: sufficiently anti-tumorigenic | overall DNA methylation levels [2]: decrease in overall DNA methylation levels | pattern of DNA demethylation [2]: biased and selective demethylation | target organs [3]: bone marrow, thymus, gastrointestinal tract, tonsils, and testes | DNMT3B protein of approximately 90 kDa ([4]; Molm13 AML xenograft, above 0.4 mg/kg): clear reduction of DNMT3B protein | DNMT3B in cancer tissues (Western blotting) ([4]; Molm13 xenograft, after administration): strongly inhibited DNMT1 and DNMT3B in a concentration-dependent manner | Optimal T/C (%) (test/control) [5]: 23% | H2AX phosphorylation [6]: increased H2AX phosphorylation | expression of p53 protein [6]: increased expression of p53 protein | phosphorylation of Chk1 [6]: increased phosphorylation of Chk1 | cytotoxicity in DNMT1 knock-out cell line [7]: decrease in cytotoxicity | AUC(0-inf) ([8]; IV 1 mg/kg): 1.9 µg·h/mL | AUC(0-t) ([8]; IV 1 mg/kg): 1.33 µg·h/mL | Cmax ([8]; IV 1 mg/kg): 0.444 µg/mL | half-life ([8]; IV 1 mg/kg): 5.01 h | AUC(0-inf) ([8]; PO 0.5 mg/kg): 0.303 µg·h/mL | AUC(0-t) ([8]; PO 0.5 mg/kg): 0.19 µg·h/mL | Cmax ([8]; PO 0.5 mg/kg): 0.0338 µg/mL | Tmax ([8]; PO 0.5 mg/kg): 2 h | half-life ([8]; PO 0.5 mg/kg): 5.24 h | AUC(0-inf) ([8]; PO 1 mg/kg): 0.79 µg·h/mL | AUC(0-t) ([8]; PO 1 mg/kg): 0.459 µg·h/mL | Cmax ([8]; PO 1 mg/kg): 0.0819 µg/mL | Tmax ([8]; PO 1 mg/kg): 1.17 h | half-life ([8]; PO 1 mg/kg): 6.3 h | AUC(0-inf) ([8]; PO 3 mg/kg): 2.8 µg·h/mL | AUC(0-t) ([8]; PO 3 mg/kg): 2.78 µg·h/mL | Cmax ([8]; PO 3 mg/kg): 0.488 µg/mL | Tmax ([8]; PO 3 mg/kg): 0.83 h | half-life ([8]; PO 3 mg/kg): 3.45 h | AUC(0-inf) ([8]; PO 10 mg/kg): 9.23 µg·h/mL | AUC(0-t) ([8]; PO 10 mg/kg): 9.2 µg·h/mL | Cmax ([8]; PO 10 mg/kg): 1.32 µg/mL | Tmax ([8]; PO 10 mg/kg): 2 h | half-life ([8]; PO 10 mg/kg): 2.95 h | oral bioavailability ([8]; rats): orally bioavailable | cell viability inhibition [9]: excellent cell viability inhibition | GI50 [10]: 0.014 to 0.69 µM | DNMT3A expression level in tumor samples [11]: not affected | Optimal T/C (%) (test/control) [12]: 21%
